The source of these data is patent US6562978B1, “Cyclic amine compounds as CCR5 antagonists” (Takeda Chemical Industries, Ltd., priority 1999, dated 2003).

Structures can show the parent of a compound that is named as a salt.

The test system of this experiment is HIV-1 Ba-L. The experiment can be described thus: Inhibitory effect on HIV-1 infection to MAGI-CCR5 cell (blue cell count, β-galactosidase). The format is cell-based. The settings on record: Human immunodeficiency virus 1, BAL, 48 h; final concentration of Test Compound 0.032 μM; MAGI-CCR5 cells; 300PFU HIV-1 Ba-L; 37° C. for 2 days.

Procedure: By using said transformant MAGI-CCR5, degree of HIV-1 infection was calculated from β-galactosidase activity (blue color due to decomposition of 5-bromo-4-chloro-3-indolyl-β-D-galactopyranoside). Specifically, MAGI-CCR5 cells were suspended in DMEM medium containing 10% serum to prepare 5×10^4 cells/ml suspension. To each well of 96 well plate was inoculated 200 μM of the suspension, and the cells were cultivated at 37° C. overnight. The medium was removed by means of suction, and to the residue was added 100 μM of the above medium containing 0.064 μM of Test Compound and 100 μM of the above medium containing 300PFU of HIV-1 Ba-L cells. The final concentration of Test Compound was 0.032 μM. The cells were cultivated at 37° C. for 2 days. The medium was removed by means of suction. To the residue was added 200 μM of cell fixative (PBS containing 1% formaldehyde and 0.2% glutaraldehyde), and the mixture was allowed to stand at room temperature for 5 minutes and washed twice with PBS. To the mixture was added 100 μl of staining solution (PBS containing 4 μM potassium ferrocyanide, 4 μM potassium ferricyanade, 2 μM MgCl2 and 0.4 mg/ml×-gal), and the mixture was allowed to stand at 37° C. for 50 minutes and washed twice with PBS. The number of blue cells was counted by microscope and defined as the number of cells infected with HIV-1.

In turn, `CC(=O)N1CCC(C(=O)N(CCCN2CCC(Cc3ccc(F)cc3)CC2)c2ccc(Cl)c(Cl)c2)CC1` [Example 468, 1-Acetyl-N-(3,4-dichlorophenyl)-N-{3-[4-(4-fluorobenzyl)-1-piperidinyl]propyl}-4-piperidinecarboxamide Hydrochloride] came in with an inhibition at 0.032 µM of 97%. The same measure for `CC(=O)N1CCC(C(=O)N(CCCN2CCC(Sc3nc4ccccc4s3)CC2)c2cccc(Cl)c2)CC1` [Example 469, 1-Acetyl-N-(3-chlorophenyl)-N-[3-[4-(2-benzthiazolylthio)-1-piperidinyl]propyl]-4-piperidinecarboxamide Hydrochloride]: 96%.
